Results as given in patent publication US11555032B2, “Isoxazole derivatives as FXR agonists and methods of use thereof” (Enanta Pharmaceuticals, Inc., priority 2019, dated 2023).

target: T1, human FXR (NR1H4) (Homo sapiens, UniProt Q96RI1); assay: Human FXR (NRIH4) Assay, luciferase reporter; assay type: cell-based; details: CHO reporter cells expressing human NR1H4, luciferase, 22 hours incubation
T1 construct: host or cells: CHO (Chinese hamster ovary) reporter cells
T1 sequence (Q96RI1 1-486): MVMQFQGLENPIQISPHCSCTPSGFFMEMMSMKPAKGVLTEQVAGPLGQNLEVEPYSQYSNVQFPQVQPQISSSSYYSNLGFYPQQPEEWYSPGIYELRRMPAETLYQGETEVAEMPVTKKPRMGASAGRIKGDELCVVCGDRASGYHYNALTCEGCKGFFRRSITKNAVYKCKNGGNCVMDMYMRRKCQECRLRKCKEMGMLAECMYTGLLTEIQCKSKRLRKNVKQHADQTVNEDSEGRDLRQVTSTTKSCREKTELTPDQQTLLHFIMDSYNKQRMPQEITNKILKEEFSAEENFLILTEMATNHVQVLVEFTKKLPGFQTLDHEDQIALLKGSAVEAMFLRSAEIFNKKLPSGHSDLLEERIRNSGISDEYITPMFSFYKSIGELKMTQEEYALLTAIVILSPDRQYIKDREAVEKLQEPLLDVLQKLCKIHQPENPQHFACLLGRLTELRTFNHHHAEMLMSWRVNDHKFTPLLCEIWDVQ
Text: Determination of a ligand mediated Gal4 promoter driven transactivation to quantify ligand binding mediated activation of FXR. FXR Reporter Assay kit purchased from Indigo Bioscience (Catalogue number: IB00601) to determine the potency and efficacy of compound developed by Enanta that can induce FXR activation. The principle application of this reporter assay system is to quantify functional activity of human FXR. The assay utilizes non-human mammalian cells, CHO (Chinese hamster ovary) cells engineered to express human NR1H4 protein (referred to as FXR). Reporter cells also incorporate the cDNA encoding beetle luciferase which catalyzes the substrates and yields photon emission. Luminescence intensity of the reaction is quantified using a plate-reading luminometer, Envision. Reporter Cells include the luciferase reporter gene functionally linked to an FXR responsive promoter. Thus, quantifying changes in luciferase expression in the treated reporter cells provides a sensitive surrogate measure of the changes in FXR activity. EC50 and efficacy (normalize to CDCA set as 100%) is determined by XLFit. The assay is according to the manufacturer's instructions. In brief, the assay was performed in white, 96 well plates using final volume of 100 ul containing cells with different doses of compounds. Retrieve Reporter Cells from −80° C. storage. Perform a rapid thaw of the frozen cells by transferring a 10 ml volume of 37° C. cell recovery medium into the tube of frozen cells. Recap the tube of Reporter Cells and immediately place it in a 37° C. water bath for 5-10 minutes. Retrieve the tube of Reporter Cell Suspension from the water bath. Sanitize the outside surface of the tube with a 70% alcohol swab, and then transfer it into the cell culture hood. Dispense 90 μl of cell suspension into each well of the 96-well Assay Plate. Transfer the plate into 37° C. incubator, allowing the cells adherent to the bottom of the well. Dilute compounds in Dilution Plate (DP), and administrate to cells at Assay Plate (AP). DMSO content of the samples was kept at 0.2%. Cells were incubated for additional 22 hours before luciferase activities were measured. Thirty minutes before intending to quantify FXR activity, remove Detection Substrate and Detection Buffer from the refrigerator and place them in a low-light area so that they may equilibrate to room temperature. Remove the plate's lid and discard all media contents by ejecting it into an appropriate waste container. Gently tap the inverted plate onto a clean absorbent paper towel to remove residual droplets. Cells will remain tightly adhered to well bottoms. Add 100 μl of luciferase detection reagent to each well of the assay plate. Allow the assay plate to rest at room temperature for at least 5 minutes following the addition of LDR. Set the instrument (Envision) to perform a single 5 second “plate shake” prior to reading the first assay well. Read time may be 0.5 second (500 mSec) per well. EC50 and Efficacy (normalize to CDCA set as 100%) is determined by XLFit.
The efficacy was normalized to CDCA set as 100%.

SMILES	EC50
NS(=O)(=O)c1ccc2nc(NC3C4CCC3CC(OCc3c(-c5ccccc5OC(F)(F)F)noc3C3CC3)C4)cnc2c1 (stereo not shown) [Example 8-2]	25 to 500 nM
NS(=O)(=O)c1ccc(NC2C3CCC2CC(OCc2c(-c4ccccc4OC(F)(F)F)noc2C2CC2)C3)nc1 (stereo not shown) [Example 8-3]	25 to 500 nM
N#Cc1ccc(NC2C3CCC2CC(OCc2c(-c4ccccc4OC(F)(F)F)noc2C2CC2)C3)nc1 [Example 8-4, 6-(((1R,3r,5S,8s)-3-((5-cyclopropyl-3-(2-(trifluoromethoxy)phenyl)isoxazol-4-yl)methoxy)bicyclo[3.2.1]octan-8-yl)amino)nicotinonitrile]	25 to 500 nM
FC(F)(F)Oc1ccccc1-c1noc(C2CC2)c1COC1CC2CCC(C1)C2Nc1ccc(-c2nnn[nH]2)cn1 [Example 8-5, N-((1R,3r,5S,8s)-3-((5-cyclopropyl-3-(2-(trifluoromethoxy)phenyl)isoxazol-4-yl)methoxy)bicyclo[3.2.1]octan-8-yl)-5-(1H-tetrazol-5-yl)pyridin-2-amine]	25 to 500 nM
FC(F)(F)Oc1ccccc1-c1noc(C2CC2)c1COC1CC2CCC(C1)C2Nc1nc2ccc(C(F)(F)F)cc2s1 (stereo not shown) [Example 8-6]	25 to 500 nM
FC(F)(F)Oc1ccccc1-c1noc(C2CC2)c1COC1CC2CCC(C1)C2Nc1ncc(-c2ccccc2)cn1 [Example 8-7, N-((1R,3r,5S,8s)-3-((5-cyclopropyl-3-(2-(trifluoromethoxy)phenyl)isoxazol-4-yl)methoxy)bicyclo[3.2.1]octan-8-yl)-5-phenylpyrimidin-2-amine]	> 500 nM
FC(F)(F)Oc1ccccc1-c1noc(C2CC2)c1COC1CC2CCC(C1)C2Nc1nccc(-c2ccccc2)n1 (stereo not shown) [Example 8-8]	> 500 nM
O=C(O)c1ccc2c(S(=O)(=O)NC3C4CCC3CC(OCc3c(-c5ccccc5OC(F)(F)F)noc3C3CC3)C4)cccc2c1 [Example 9, 5-(N-((1R,3r,5S,8s)-3-((5-cyclopropyl-3-(2-(trifluoromethoxy)phenyl)isoxazol-4-yl)methoxy)bicyclo[3.2.1]octan-8-yl)sulfamoyl)-2-naphthoic acid]	< 25 nM
COC(=O)c1ccc(S(=O)(=O)NC2C3CCC2CC(OCc2c(-c4ccccc4OC(F)(F)F)noc2C2CC2)C3)c2ccccc12 (stereo not shown) [Example 9-2]	< 25 nM
O=C(O)c1ccc(S(=O)(=O)NC2C3CCC2CC(OCc2c(-c4ccccc4OC(F)(F)F)noc2C2CC2)C3)c2ccccc12 (stereo not shown) [Example 9-3]	25 to 500 nM
COC(=O)c1cccc2c(S(=O)(=O)NC3C4CCC3CC(OCc3c(-c5ccccc5OC(F)(F)F)noc3C3CC3)C4)cccc12 (stereo not shown) [Example 9-4]	25 to 500 nM
O=C(O)c1cccc2c(S(=O)(=O)NC3C4CCC3CC(OCc3c(-c5ccccc5OC(F)(F)F)noc3C3CC3)C4)cccc12 (stereo not shown) [Example 9-5]	< 25 nM
COC(=O)c1ccc2cc(S(=O)(=O)NC3C4CCC3CC(OCc3c(-c5ccccc5OC(F)(F)F)noc3C3CC3)C4)ccc2c1 (stereo not shown) [Example 9-6]	< 25 nM
O=C(O)c1ccc2cc(S(=O)(=O)NC3C4CCC3CC(OCc3c(-c5ccccc5OC(F)(F)F)noc3C3CC3)C4)ccc2c1 (stereo not shown) [Example 9-7]	25 to 500 nM
O=C(O)c1cccc(S(=O)(=O)NC2C3CCC2CC(OCc2c(-c4ccccc4OC(F)(F)F)noc2C2CC2)C3)c1 (stereo not shown) [Example 9-8]	> 500 nM
O=C(O)c1ccccc1S(=O)(=O)NC1C2CCC1CC(OCc1c(-c3ccccc3OC(F)(F)F)noc1C1CC1)C2 (stereo not shown) [Example 9-9]	> 500 nM
O=S(=O)(NC1C2CCC1CC(OCc1c(-c3ccccc3OC(F)(F)F)noc1C1CC1)C2)c1ccccc1 (stereo not shown) [Example 9-10]	25 to 500 nM
O=S(=O)(NC1C2CCC1CC(OCc1c(-c3ccccc3OC(F)(F)F)noc1C1CC1)C2)c1cccc2ccccc12 (stereo not shown) [Example 9-11]	< 25 nM
O=S(=O)(NC1C2CCC1CC(OCc1c(-c3ccccc3OC(F)(F)F)noc1C1CC1)C2)c1ccc2ccccc2c1 (stereo not shown) [Example 9-12]	< 25 nM

SMILES	EC50
O=S(=O)(NC1C2CCC1CC(OCc1c(-c3ccccc3OC(F)(F)F)noc1C1CC1)C2)c1cccc2cccnc12 (stereo not shown) [Example 9-13]	25 to 500 nM
O=S(=O)(NC1C2CCC1CC(OCc1c(-c3ccccc3OC(F)(F)F)noc1C1CC1)C2)c1cccc2cnccc12 (stereo not shown) [Example 9-14]	< 25 nM
O=S(=O)(NC1C2CCC1CC(OCc1c(-c3ccccc3OC(F)(F)F)noc1C1CC1)C2)c1cccc2ccncc12 (stereo not shown) [Example 9-15]	< 25 nM
O=S(=O)(NC1C2CCC1CC(OCc1c(-c3ccccc3OC(F)(F)F)noc1C1CC1)C2)c1cccc2ncccc12 (stereo not shown) [Example 9-16]	< 25 nM
CC(C)Oc1ccc(S(=O)(=O)NC2C3CCC2CC(OCc2c(-c4ccccc4OC(F)(F)F)noc2C2CC2)C3)c2ccccc12 (stereo not shown) [Example 9-17]	25 to 500 nM
CC(C)Oc1cc(CO)cc2sc(NC3C4CCC3CC(OCc3c(-c5ccccc5OC(F)(F)F)noc3C3CC3)C4)nc12 (stereo not shown) [Example 10-2]	< 25 nM
CC(C)Oc1cc(C(C)(C)O)cc2sc(NC3C4CCC3CC(OCc3c(-c5ccccc5OC(F)(F)F)noc3C3CC3)C4)nc12 (stereo not shown) [Example 10]	< 25 nM
COC(=O)c1ccc2cc(SC3C4CCC3CC(OCc3c(-c5ccccc5OC(F)(F)F)noc3C3CC3)C4)ccc2c1 [Example 11, methyl 6-(((1R,3r,5S,8s)-3-((5-cyclopropyl-3-(2-(trifluoromethoxy)phenyl)isoxazol-4-yl)methoxy)bicyclo[3.2.1]octan-8-yl)thio)-2-naphthoate]	25 to 500 nM
O=C(O)c1ccc2cc(SC3C4CCC3CC(OCc3c(-c5ccccc5OC(F)(F)F)noc3C3CC3)C4)ccc2c1 [Example 11-2, 6-(((1R,3r,5S,8s)-3-((5-cyclopropyl-3-(2-(trifluoromethoxy)phenyl)isoxazol-4-yl)methoxy)bicyclo[3.2.1]octan-8-yl)thio)-2-naphthoic acid]	25 to 500 nM
COC(=O)c1ccc2cc(S(=O)(=O)C3C4CCC3CC(OCc3c(-c5ccccc5OC(F)(F)F)noc3C3CC3)C4)ccc2c1 [Example 11-3, methyl 6-(((1R,3r,5S,8s)-3-((5-cyclopropyl-3-(2-(trifluoromethoxy)phenyl)isoxazol-4-yl)methoxy)bicyclo[3.2.1]octan-8-yl)sulfonyl)-2-naphthoate]	25 to 500 nM
O=C(O)c1ccc2cc(S(=O)(=O)C3C4CCC3CC(OCc3c(-c5ccccc5OC(F)(F)F)noc3C3CC3)C4)ccc2c1 (stereo not shown) [Example 11-4]	25 to 500 nM
CCOC(=O)c1cccc(SC2C3CCC2CC(OCc2c(-c4ccccc4OC(F)(F)F)noc2C2CC2)C3)c1 (stereo not shown) [Example 11-5]	> 500 nM
O=C(O)c1cccc(SC2C3CCC2CC(OCc2c(-c4ccccc4OC(F)(F)F)noc2C2CC2)C3)c1 (stereo not shown) [Example 11-6]	25 to 500 nM
CCOC(=O)c1cccc(S(=O)(=O)C2C3CCC2CC(OCc2c(-c4ccccc4OC(F)(F)F)noc2C2CC2)C3)c1 (stereo not shown) [Example 11-7]	25 to 500 nM
O=C(O)c1cccc(S(=O)(=O)C2C3CCC2CC(OCc2c(-c4ccccc4OC(F)(F)F)noc2C2CC2)C3)c1 (stereo not shown) [Example 11-8]	> 500 nM
COC(=O)c1ccc2nc(SC3C4CCC3CC(OCc3c(-c5ccccc5OC(F)(F)F)noc3C3CC3)C4)sc2c1 (stereo not shown) [Example 11-9]	25 to 500 nM
O=C(O)c1ccc2nc(SC3C4CCC3CC(OCc3c(-c5ccccc5OC(F)(F)F)noc3C3CC3)C4)sc2c1 (stereo not shown) [Example 11-10]	< 25 nM
O=C(O)c1ccc2nc(S(=O)(=O)C3C4CCC3CC(OCc3c(-c5ccccc5OC(F)(F)F)noc3C3CC3)C4)sc2c1 (stereo not shown) [Example 11-11]	25 to 500 nM
